Source: paper PMC6988089 (Journal of the American Chemical Society, 2019)

What was measured:
Format in all cases: biochemical
[1] = test system: Suv39H2 mutant / hole-modified CBX1; settings: full-length H3 and purified mononucleosomes; Western blot
[2] = test system: G9a Y1154G mutant; assay: Substrate peptide benzylation by G9a-Y1154G
[3] = test system: G9a Y1154A mutant; assay: Substrate peptide alkylation by G9a-Y1154A with SAM analogues; settings: TAMRA-labeled H3K9 peptide; MALDI-MS
[4] = test system: Y372G mutant of Suv39H2; assay: Benzylation of substrate peptide and full-length H3 by Suv39H2-Y372G

Nc1ncnc2c1ncn2[C@@H]1O[C@H](C[S+](CC[C@H](N)C(=O)O)Cc2ccccc2)[C@@H](O)[C@H]1O (some centres unmarked) [benzyl-SAM]
H3 signal after enrichment with hole-modified CBX1 [1]: signal for H3 only in the presence of benzyl-SAM | substrate benzylation by G9a-Y1154G ([2]; TAMRA-labeled H3K9 peptide, MALDI-MS): complete substrate benzylation | dibenzylation of substrate by G9a mutant ([2]; under our assay conditions, Figure S2): did not observe any dibenzylation | substrate modification by G9a-Y1154A [3]: not efficient at incorporating benzyl modification | utilization of benzyl-SAM by Suv39H2-Y372G [4]: efficiently utilized benzyl-SAM
